In patent publication US5017723A, “Substituted ethylamines, their preparation process, their use as medicine and their synthesising agents” (Jouveinal S.A., priority 1990, dated 1991):
Structures can show the parent of a compound that is named as a salt.

Tested on: convulsion induced by picrotoxine in mice
Experiment: Protection against picrotoxine-induced convulsion (suppression of the tonic extension phase)
Format: in vivo, male Swiss mice
Conditions: for i.p.: % prot. (percentage of protected animals): 50 mg/kg i.p., picrotoxine 24 mg/kg i.p. 30 min later; for responders at 50 mg/kg / responders at 100 mg/kg / ED50: Mus musculus; for responders at 50 mg/kg: ip, 0.5 h, read-out: i.p.: % prot. (percentage of protected animals), 50 mg/kg i.p., picrotoxine 24 mg/kg i.p. 30 min later; for responders at 100 mg/kg / ED50: po; for responders at 100 mg/kg: 1 h, read-out: p.o.: % prot. (percentage of protected animals), 100 mg/kg p.o., picrotoxine 24 mg/kg i.p. 60 min later; for ED50: read-out: p.o.: DE50
Text: The psychotropic properties of the compounds have been determined by the protection of the induced convulsion by picrotoxine for mice, which is achieved by the method derived from that of Krall et al., "Epilepsia", 1978, 19, p. 409-428.
The administration of picrotoxine caused a convulsive crisis in the animal characterised by a myoclonic extension syndrome followed by the extension of the limbs causing the animal to die. Certain substances, particularly those active on the complex GABA/benzodiazepines/Cl-ionophore makes it possible to protect the animals from this convulsive crisis.
In practice the study is carried out on batches of 10 male "Swiss" mice weighing approximately 20 g, which are administered with the product to be studied in aqueous solution either by intraperitoneal route (i.p.) at the rate of 50 mg/kg and in a volume of 0.2 ml of solution per animal, or by oral route (p.o) in a volume of 2.0 ml of solution per animal.
An injection of a solution of picrotoxine at the rate of 24 mg/kg in a volume of 0.2 ml per animal is then administered by interperitoneal route, either 30 minutes after administering the product by interperitoneal route or 60 minutes after administering the product by oral route. The dose of the product injected causing a clonic crisis, which results in untreated animals dying. The suppression of the extension tonic phase in the animals treated under the conditions of the test is observed. The results are expressed:
either in percentages of protected animals of this phase to the reaction of 50 mg/kg of the compound of the study administered by i.p. route or 100 mg/kg by p.o route,
or in DE50 for each of these routes, which is the efficient dosage of the test compound expressed in mg/kg protecting 50% of the animals of this extension phase. The significant value of the results being generally indicated in the following manner:
* Significant result at p<0.05
** Significant result at p<0.01
*** Significant highly significant at p<0.001.

[1] = * p<0.05, ** p<0.01, *** p<0.001

## CCC(CC=Cc1ccccc1)(c1ccccc1)N(C)C (single isomer, unassigned; (+)) [Example 50, (+) a-cinnamyl-N,N-dimethyl-a-ethyl-benzylamine]
[1]
  i.p.: % prot. (percentage of protected animals): 100%

## CCC(N)(CC=Cc1ccccc1)c1ccc(Cl)c(Cl)c1 (centres unmarked) [Example 5, a-cinnamyl-a-ethyl-3,4 dichlorobenzylamine]
[1]
  responders at 50 mg/kg: 50%

## CCC(CC=Cc1cccs1)(c1ccco1)N(C)C (centres unmarked) [Example 61, N,N-dimethyl-a-ethyl-a-[3-(2-thienyl)-2-propenyl]-2-furfurylamine]
[1]
  responders at 50 mg/kg: 50%

## CCC(N)(CC=Cc1ccccc1)c1ccccc1 (single isomer, unassigned) [Example 16A, (-) tartrate of (+) a-cinnamyl-a-ethyl-benzylamine]
[1]
  responders at 50 mg/kg: 90%
  responders at 100 mg/kg: 100%

## CC(C)C(N)(CC=Cc1ccc(Cl)c(Cl)c1)c1ccccc1 (centres unmarked) [Example 11, a-(3',4'-dichloro)cinnamyl-a-isopropylbenzylamine]
[1]
  responders at 50 mg/kg: 70%
  responders at 100 mg/kg: 100%

## CCC(CC=Cc1ccccc1)(c1ccc(Cl)c(Cl)c1)N(C)C (centres unmarked) [Example 32, a-cinnamyl-N,N-dimethyl-a-ethyl-(3,4-dichloro)benzylamine]
[1]
  responders at 50 mg/kg: 50%
  responders at 100 mg/kg: 60%

## CCC(CC=Cc1ccsc1)(c1ccsc1)N(C)C (centres unmarked) [Example 70, N.N-dimethyl-a-ethyl-a-[3-(3-thienyl)-2-propenyl]-3-thienylmethylamine]
[1]
  responders at 50 mg/kg: 80%
  responders at 100 mg/kg: 100%

## CCC(N)(CC=Cc1ccccc1)c1ccccc1 (single isomer, unassigned) [Example 16B, (+) tartrate of (-)a-cinnamyl-a-ethyl benzylamine]
[1]
  i.p.: % prot. (percentage of protected animals): 100%
100 mg/kg p.o., picrotoxine 24 mg/kg i.p. 60 min later, * p<0.05, ** p<0.01, *** p<0.001
  p.o.: % prot. (percentage of protected animals): 100%

## CCC(N)(CC=Cc1ccccc1)c1ccccc1 (centres unmarked) [Example 3, a-cinnamyl-a-ethyl-benzylamine]
[1]
  responders at 50 mg/kg: 80%
  responders at 100 mg/kg: 100%

## CCC(CC=Cc1cccs1)(c1ccccc1)N(C)C (centres unmarked) [Example 55, N,N-dimethyl-a-ethyl-a-[30(2-thienyl)-2-propenyl]-benzylamine]
[1]
  responders at 50 mg/kg: 70%
  responders at 100 mg/kg: 70%

## CCC(C[C@@H]1C[C@H]1c1ccccc1)(c1cccs1)N(C)C (relative stereo) [Example 63, trans N,N-dimethyl-a-ethyl-a-(2-phenyl-1-cyclopropylmethyl)-2-thienylmethylmaine]
[1]
  responders at 50 mg/kg: 60%
  responders at 100 mg/kg: 50%

## CCC(N)(CC=Cc1ccccc1)c1ccc(C)cc1 (centres unmarked) [Example 6, a-cinnamyl-a-ethyl-p.methylbenzylamine]
[1]
  responders at 50 mg/kg: 70%
  responders at 100 mg/kg: 70%

## CCC(CC=Cc1ccccc1)(NC)c1ccccc1 (single isomer, unassigned; (-)) [Example 28, (-) a-cinnamyl-a-ethyl-N-methyl benzylamine]
[1]
  responders at 50 mg/kg: 100%
  responders at 100 mg/kg: 100%

## CC(C)C(CC=Cc1ccccc1)(c1ccccc1)N(C)C (centres unmarked) [Example 41, a-cinnamyl-N,N-dimethyl-a-isopropylbenzylamine]
  ED50: 78.4 mg/kg

## CCCCCC(CC=Cc1ccccc1)(c1ccccc1)N(C)C (centres unmarked) [Example 42, a-cinnamyl-N,N-dimethyl-a-pentyl-benzylamine]
  ED50: 65 mg/kg

## CCC(C[C@@H]1C[C@H]1c1ccccc1)(c1ccsc1)N(C)C (relative stereo) [Example 68, trans N,N-dimethyl-a-ethyl-a-(2-phenyl-1-cyclopropylmethyl)-3-trienylmethylamine]
[1]
  responders at 50 mg/kg: 100%

## CCC(CC=Cc1ccccc1)(c1ccccc1)N(C)C (centres unmarked) [Example 30, a-cinnamyl-N,N-dimethyl-a-ethyl-benzylamine]
[1]
  responders at 50 mg/kg: 100%
  responders at 100 mg/kg: 100%

## CCC(CC=Cc1ccccc1)(c1cccs1)N(C)C (centres unmarked) [Example 62, a-cinnamyl-N,N-dimethyl-a-ethyl-2-thienylmethylamine]
[1]
  responders at 100 mg/kg: 80%
